Measured values: patent US20090215895A1, “Therapeutic and carrier molecules” (PEPLIN BIOLIPIDS PTY LTD, priority 2004, published 2009)

Experiments:
E-selectin = assay: Adhesion molecule expression on HUVEC (ELISA, mRNA slot blot); assay type: cell-based, human; conditions: for Suppression of TNF-α-induced E-selectin expression on HUVEC: 60 min pre-treatment
Experimental: (§1) FIG. 13 is a representation showing effect of MP3 (β-oxa-23:4n-6) and 20:4n-6 on time-related changes in TNF-α-induced E-selectin, ICAM-1 and VCAM-1 expression on HUVEC. HUVEC were pre-treated with 20 μmol/l β-oxa-23:4n-6 (closed triangles), 20 μmol/l 20:4n-6 (open squares), or DPC (control) for 60 min and then further incubated with TNF-α (125 U/200 μl medium) for up to 24 hr. The expression of E-selectin, ICAM-1 and VCAM-1 adhesion molecules was determined by ELISA. The results are expressed as % of control and represent the mean±SEM of three separate experiments each performed in triplicate. * p<0.05, **p<0.01, ***p<0.001, for significant differences between pre-treatment with fatty acid and corresponding control at a particular time point (one-way analysis of variance followed by the Dunnett test for multiple comparisons). Inset: The effect of β-oxa-23:4n-6 on TNF-α-induced expression of E-selectin mRNA in HUVEC. HUVEC were pre-incubated with β-oxa-23:4n-6 (20 μmol/l) or DPC (control) in 1 ml of medium at 37° C. for 60 min. After the addition of TNF-α, the cells were further incubated at 37° C. for 2 hr. E-selectin mRNA expression was then determined and the results expressed as relative %. Results are the mean±SEM of three separate experiments each performed in quadruplicate. *p<0.0001, for significant differences between pre-treatment with β-oxa-23:4n-6, and control (two-tailed Student's t-test for unpaired data).
(§2) HUVEC were stimulated with TNF, bacterial lipopolysaccharide (LPS) or PMA for 24 hr. Expression of E-selectin, ICAM-1 and VCAM-1 was determined by an enzyme-linked immunosorbent assay (ELISA) or as mRNA using a slot blot technique (Huang et al 1997 supra).

p38 = assay: TNF-stimulated MAP kinase activity in HUVEC; assay type: cell-based, human; conditions: HUVEC pre-treated with the fatty acid
Experimental: (§3) ERK and p38 were precipitated with anti-ERK2 (C-14, sc-154) and anti-p38 (C-20, sc-535) antibody, respectively (Santa Cruz Biotech) and the activity determined using myelin basic protein as a substrate (Hii et al, 1995 supra, Hii et al, 1998 supra). JNK activity was determined in a solid phase assay using GST c-Jun (residues-1-79) as a substrate (Hii et al, 1995 supra, Hii et al, 1998 supra).

JNK = assay: TNF-stimulated MAP kinase activity in HUVEC; assay type: cell-based, human; conditions: HUVEC pre-treated with the fatty acid
Experimental: as §3

ERK = assay: TNF-stimulated MAP kinase activity in HUVEC; assay type: cell-based, human; conditions: HUVEC pre-treated with the fatty acid
Experimental: as §3

IκBα = assay: TNF-induced degradation of IκBα in HUVEC (Western blot); assay type: cell-based; conditions: Homo sapiens, 20 μmol/l, 30 min pre-treatment, TNF 10 min
Experimental: FIG. 17 is a representation showing (A) the effect of MP3 (β-oxa 23:4n-6) and DHA on TNF-induced degradation of IκBα in HUVEC. Cells were pre-treated with the fatty acids (20 μmol/l) for 30 min and then stimulated with TNF (125 U/ml) for 10 min. After cell lysis the proteins were analyzed by Western blots using anti-IκBα antibodies. (B) The effects of β-oxa-23:4n-6 on TNF-induced activation of transcriptional factor, NFκB in HUVEC. Cells were pre-treated with β-oxa-23:4n-6 (20 μmol/l) for 30 min and then stimulated with TNF for 2 hr. After cell lysis, nuclear fractions were prepared, nuclear proteins separated by SDS PAGE (12% w/v gel), transferred to nitrocellulose and probed with an anti-NFκB p65 antibody (Santa Cruz). […] (C) The effect of β-oxa 23:4n-6 on TNF-stimulated activation of IKK. Cells were pre-treated with β-oxa 23:4n-6 (20 μmol/l) for 30 min and then stimulated with TNF for 5 min. After cell lysis IKK was immunoprecipitated with anti-IKKα antibody and kinase activity determined. […]
Proteins (50 μg) were separated by SDS PAGE (12% w/v gel), transferred to nitrocellulose and probed with an anti-NFκB p65 or anti-IκBα antibody (Santa Cruz Biotech, Santa Cruz, Calif.). Immunocomplexes were detected by enhanced chemiluminescence (Hii et al, 1998 supra).

ICAM-1 = assay: Adhesion molecule expression on HUVEC (ELISA); assay type: cell-based, human; conditions: for Suppression of TNF-α-induced ICAM-1 expression on HUVEC: 60 min pre-treatment
Experimental: as §1, §2

IKK = assay: TNF-stimulated activation of IKK in HUVEC (immunoprecipitation kinase assay); assay type: cell-based, human; conditions: 20 μmol/l, 30 min, TNF 5 min
Experimental: FIG. 17 is a representation showing (A) the effect of MP3 (β-oxa 23:4n-6) and DHA on TNF-induced degradation of IκBα in HUVEC. Cells were pre-treated with the fatty acids (20 μmol/l) for 30 min and then stimulated with TNF (125 U/ml) for 10 min. After cell lysis the proteins were analyzed by Western blots using anti-IκBα antibodies. (B) The effects of β-oxa-23:4n-6 on TNF-induced activation of transcriptional factor, NFκB in HUVEC. Cells were pre-treated with β-oxa-23:4n-6 (20 μmol/l) for 30 min and then stimulated with TNF for 2 hr. After cell lysis, nuclear fractions were prepared, nuclear proteins separated by SDS PAGE (12% w/v gel), transferred to nitrocellulose and probed with an anti-NFκB p65 antibody (Santa Cruz). […] (C) The effect of β-oxa 23:4n-6 on TNF-stimulated activation of IKK. Cells were pre-treated with β-oxa 23:4n-6 (20 μmol/l) for 30 min and then stimulated with TNF for 5 min. After cell lysis IKK was immunoprecipitated with anti-IKKα antibody and kinase activity determined.
IKK was immunoprecipitated with anti-IKKα (M-280) antibody (sc-7182, Santa Cruz, Biotech) and kinase activity determined using GST-IκBA (residues 5-55) as previously described (Lee et al, 1998 supra). Proteins were fractionated by SDS PAGE and radioactivity associated with GST-IκBα (residues 5-55) determined using an instant imager.

HUVEC = assay: Agonist-enhanced neutrophil adherence to HUVEC; assay type: cell-based, human; conditions: for Inhibition of TNF-α-enhanced neutrophil adhesion to HUVEC: 20 μmol/l, 1 hr pre-treatment, TNF 4 hr
Procedure, shortened: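 HUVEC were pre-treated 60 min at 37° C. with fatty acids (20 μmol/l), stimulated with TNF (125 U/200 μl) for 4 hr, then co-incubated 30 min with neutrophils (5×10^5 cells/well). Adherence expressed as % of control, mean±SEM of three triplicate experiments.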

[1] = 20 μmol/l, listed as β-oxa-23:4n-6

- Effect on ability of TNF to stimulate p38 (p38): did not affect
- Effect on ability of TNF to stimulate JNK (JNK): did not affect
- Effect on ability of TNF to stimulate ERK (ERK): did not affect
- TNF-stimulated activation of IKK / IκB kinase-NFκB signalling pathway (IKK): inhibits the ability of TNF to activate
- TNF-stimulated activation of IKK / IκB kinase-NFκB signalling pathway (IKK; listed as β-oxa 23:4n-6): significantly inhibited
Compound: CCCCC/C=C\C/C=C\C/C=C\C/C=C\CCCCOCC(=O)O [MP3, β-oxa-23:4n-6]
- TNF-α-induced expression of E-selectin mRNA (E-selectin; 20 μmol/l, 60 min, TNF-α 2 hr): substantially depressed
- Suppression of TNF-α-induced E-selectin expression on HUVEC (E-selectin; 20 μmol/l): better than docosahexaenoic acid (22:6n-3) at suppressing
- Suppression of TNF-α-induced E-selectin expression on HUVEC (E-selectin; [1]): inhibited the expression
- Time of cytokine treatment at maximum inhibition of E-selectin expression (E-selectin; 20 μmol/l, TNF-α): 4 h
- Inhibition of LPS and PMA-induced up-regulation of E-selectin (E-selectin; HUVEC): inhibited LPS and PMA-induced, up-regulation
- inhibition at 20 µM (IκBα): > 92%
- Suppression of TNF-α-induced ICAM-1 expression on HUVEC (ICAM-1; 20 μmol/l): better than docosahexaenoic acid (22:6n-3) at suppressing
- Suppression of TNF-α-induced ICAM-1 expression on HUVEC (ICAM-1; [1]): inhibited the expression
- Time of cytokine treatment at maximum inhibition of ICAM-1 expression (ICAM-1; 20 μmol/l, TNF-α): 6 h
- Inhibition of LPS and PMA-induced up-regulation of ICAM-1 (ICAM-1; HUVEC): inhibited LPS and PMA-induced, up-regulation
- Inhibition of LPS- or PMA-induced neutrophil adhesion to HUVEC (HUVEC): inhibited the increase in neutrophil adhesion
- Inhibition of TNF-α-enhanced neutrophil adhesion to HUVEC (HUVEC): greatest suppression
- Inhibition of TNF-α-enhanced neutrophil adhesion to HUVEC (HUVEC; listed as β-oxa 23:4n-6): most active
- Inhibition of TNF-α-enhanced neutrophil adhesion to HUVEC (HUVEC; listed as β-oxa-23:4n-6): inhibited their ability to be stimulated
- Concentration with significant suppression of TNF-α-induced neutrophil adhesion (HUVEC; pre-treatment time of 1 hr): ≥ 5 µmol/L
